Columns and labels:
Assay in all cases: AUC of viability dose-response curve (% viability x log10 dose units); higher = less sensitive
Conditions in all cases: 48 h
NOMO1 = tested on: NOMO1
Method in brief: (§1)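 Leukemia cells adapted to each medium were seeded in 1536-well plates (500 or 1000 cells/well) and given library compounds in DMSO for 48 h at 37°C. The 11 threefold doses spanned 47 μM to 0.79 nM, and CellTiter-Glo One luminescence was normalised per plate to DMSO and cell-free wells before four-parameter log-logistic fitting on log10 dose. Area under the curve was integrated with the trapezoidal rule, scaling curves above full viability and removing curves that failed quality control.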

P12-Ichikawa = tested on: P12-Ichikawa
Method in brief: as §1

SEM cells = tested on: SEM cells
Method in brief: as §1

[1] = RPMI 5 mM glucose + 10% dialyzed FBS

## NC1=C(Cl)C(=CC=N1)OC2=C(F)C=C(NC(=O)\C3=C\N\C=C(C3=O)\C4=CC=C(F)C=C4)C=C2
NOMO1; HPLM + 10% dialyzed FBS
  AUC of viability dose-response curve: 441
NOMO1; RPMI 5 mM glucose + 10% FBS
  AUC of viability dose-response curve: 452
NOMO1; [1]
  AUC of viability dose-response curve: 453
P12-Ichikawa; HPLM + 10% dialyzed FBS
  AUC of viability dose-response curve: 451
P12-Ichikawa; RPMI 5 mM glucose + 10% FBS
  AUC of viability dose-response curve: 448
P12-Ichikawa; [1]
  AUC of viability dose-response curve: 447
SEM cells; HPLM + 10% dialyzed FBS
  AUC of viability dose-response curve: 312
SEM cells; RPMI 5 mM glucose + 10% FBS
  AUC of viability dose-response curve: 287
SEM cells; [1]
  AUC of viability dose-response curve: 247
